Data: patent EP0486280A2, “Piperidinylcamphorsulfonyl oxytocin antagonists” (MERCK & CO. INC., priority 1990, dated 1992)

Target: T1, uterine OT receptors (Rattus norvegicus, UniProt P70536)
T1 construct: from tissue; host or cells: uterus of DES-treated rats, crude membranes
T1 sequence (P70536 1-388): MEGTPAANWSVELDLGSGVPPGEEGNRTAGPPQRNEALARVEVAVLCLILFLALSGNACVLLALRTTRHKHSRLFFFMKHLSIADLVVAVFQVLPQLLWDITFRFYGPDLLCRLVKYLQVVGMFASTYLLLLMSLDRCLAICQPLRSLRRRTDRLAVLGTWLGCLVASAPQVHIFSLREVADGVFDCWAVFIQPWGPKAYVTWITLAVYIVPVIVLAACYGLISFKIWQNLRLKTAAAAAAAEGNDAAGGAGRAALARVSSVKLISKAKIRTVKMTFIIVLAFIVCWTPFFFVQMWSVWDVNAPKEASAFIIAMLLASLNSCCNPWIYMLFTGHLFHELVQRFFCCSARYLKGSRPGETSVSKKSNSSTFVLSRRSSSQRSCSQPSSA
Experiment: saturation binding of [^3H]OT, crude membrane preparation of uteri
Parameters: species or system rats
Settings: radioligand Kd from saturation binding assay; uterus
Description: The high affinity binding of [^3H] Oxytocin(OT)([tyrosyl, 3,5-[^3H]OT; 30-60 Ci/mmol; New England Nuclear. Boston, MA) to uterine OT receptors was based on an assay^* using a crude membrane preparation of uteri taken from diethylstilbestrol dipropionate (DES)-treated (0.3 mg/kg, ip; 18-24) rats. Competition studies were conducted at equilibrium (60 minutes; 22°C) using 1 nM[^3H]OT in the following assay buffer: 50 mM Tris-HCI, 5 mM MgCl2, and 0.1% BSA, pH 7.4. Nonspecific binding (10% of the total binding) was determined using 1 mM unlabeled OT and the binding reaction was terminated by filtration through glass fiber filters using a cell harvester (model 7019, Skatron, Inc., Sterling, VA).
1985 J. Clin. Endocrinol. Metab. 60:37.

## CC[C@H](C)[C@@H]1NC(=O)[C@H](Cc2ccc(O)cc2)NC(=O)[C@@H](N)CSSC[C@@H](C(=O)N2CCC[C@H]2C(=O)N[C@@H](CC(C)C)C(=O)NCC(N)=O)NC(=O)[C@H](CC(N)=O)NC(=O)[C@H](CCC(N)=O)NC1=O [[^3H]OT]
  Kd: 0.7 nM
